Columns and labels:
[1] = system: RIDD targets SCARA3, Bloc1s1 and Col6A1; experiment: IRE1 RIDD activity from the RNAseq dataset in HEK293T cells; assay type: cell-based, human; settings: 6 hours
Method: Cells were lysed and total RNA collected using the RNeasy mini kit, according to manufacturer's instructions (Qiagen). Conventional RNA-seq was conducted via BGI Americas on the BGI Proprietary platform, providing single-end 50 bp reads at 20 million reads per sample. Alignment of sequencing data was done using DNAstar Lasergene SeqManPro to the GRCh37. p 13 human genome reference assembly, and assembly data were imported into ArrayStar 12.2 with QSeq (DNAStar Inc.) to quantify the gene expression levels and normalization to reads per kilobase per million (RPKM). Differential expression analysis and statistical significance calculations between different conditions was assessed using “DESeq” in R, compared to vehicle-treated cells, using a standard negative binomial fit of the RPKM data to generate Fold Change quantifications.
Also evaluated was IRE1 RIDD activity induced by the compounds using the RNAseq dataset. Despite robust IRE1/XBP1s transcriptional activity following 6 hours of treatment, there was no evidence for RIDD after the same 6 hours.

[2] = system: APP; experiment: APP immunoblots of lysates and conditioned media of CHO 7PA2 cells; assay type: cell-based; settings: with compound 474
Method: FIGS. 5A-5D. […] Cells were treated for 18 hours, media was then replaced and conditioned in the presence of treatments for 24 hours before harvesting for ELISA assay. Error bars represent SEM for n=3 replicates. Statistics calculated from one-tailed Student's t-test. *p<0.05, **p<0.01, ***p<0.001 (FIG. 5A). Quantification of media and lysate immunoblots from 474 treatment (10 μM) of APP. Error bars represent Standard Deviation for n=3 replicates. Statistics calculated from one-tailed Student's t-test. *p<0.05, **p<0.01 ***p<0.001 (FIG. 5B). Plot showing fraction of total remaining APP at each time point after S35 metabolic labeling of newly synthesized protein, accounting for the sum of APP in lysate and media. Error bars represent Standard Deviation for n=3 replicates. Statistics calculated from one-tailed Student's t-test. *p<0.05, **p<0.01, ***p<0.001 (FIG. 5C). Plot showing fraction of secreted APP collected at 2 hours after metabolic labeling. Error bars represent Standard Deviation for n=3 replicates. Statistics calculated from one-tailed Student's t-test. *p<0.05, **p<0.01, ***p<0.001 (FIG. 5D). […]

[3] = system: BiP; experiment: qPCR of ATF6-regulated gene BiP in HEK293T cells; assay type: cell-based
Method: (§1) FIG. 3A-FIG. 3D. […] Error bars show SEM for n=3. […] Error bars show SEM for n=3. […] Error bars show SEM for n=3.
The compounds were measured for their abilities to induce expression of ER stress-responsive genes CHOP and BiP (or […]) regulated downstream of the PERK and ATF6 UPR signaling pathways, respectively^8, 40. The Tg-dependent expression of these two genes is largely insensitive to 4 μ8c, confirming their induction through an IRE1/XBP1s independent mechanism.

[4] = system: DNAJB9; assay type: cell-based; settings: 4 μ8c 32 μM
[5] = system: secreted Aβ; experiment: Aβ ELISA of media conditioned on CHO 7PA2 cells (V717F APP); assay type: cell-based; settings: 4 μ8c 32 μM
Method: FIGS. 5A-5D. […] Cells were treated for 18 hours, media was then replaced and conditioned in the presence of treatments for 24 hours before harvesting for ELISA assay. Error bars represent SEM for n=3 replicates. Statistics calculated from one-tailed Student's t-test. *p<0.05, **p<0.01, ***p<0.001 (FIG. 5A). Quantification of media and lysate immunoblots from 474 treatment (10 μM) of APP. Error bars represent Standard Deviation for n=3 replicates. Statistics calculated from one-tailed Student's t-test. *p<0.05, **p<0.01 ***p<0.001 (FIG. 5B). Plot showing fraction of total remaining APP at each time point after S35 metabolic labeling of newly synthesized protein, accounting for the sum of APP in lysate and media. Error bars represent Standard Deviation for n=3 replicates. Statistics calculated from one-tailed Student's t-test. *p<0.05, **p<0.01, ***p<0.001 (FIG. 5C). Plot showing fraction of secreted APP collected at 2 hours after metabolic labeling. Error bars represent Standard Deviation for n=3 replicates. Statistics calculated from one-tailed Student's t-test. *p<0.05, **p<0.01, ***p<0.001 (FIG. 5D).
7PA2 or 7WD10 cells were cultured on 96-well plates (Corning) and treated with IRE1 activating compounds +/−4 μ8c overnight. The medium was then replaced at 50% volume with treatment remaing, culture medium was collected after 24 hours. The medium was analyzed by an AP ELISA as follows. Monoclonal 6E10 anti-Aβ(residues 1-17) mouse IgG1, (Biolegend) was coated in […] carbonate buffer, pH 9.6, at 4° C. overnight on high binding assay black plates (Costar), washed with TBST (tris buffered saline with 0.05% Tween 20) and blocked with 5% non-fat milk in TBST. Samples and standards (condition 7PA2 media) were incubated for 1.5 hr, followed by addition of 4G8 antibody [anti-Aβ residues 17-24, mouse IgG2b (Biolegend)] conjugated to horseradish peroxidase (hrp) and incubated for 1.5 hr at 25° C. After washing, ABM substrate was added, followed by detection with an absorbance plate reader.
ELISA was used to monitor Aβ in media conditioned on a CHO cell line stably expressing the destabilized, disease-associated V717F APP mutant (CHO^7PA2)^45 treated with or without compounds 198, 474, and 970. […] The reduction in A secretion can be attributed to IRE1 activation because the reduced extracellular accumulation of Aβ is blocked by co-treatment with the active site IRE1 inhibitor 4 μ8c (FIG. 5A).

[6] = system: IRE1/XBP1s signaling pathway; experiment: XBP1-RLuc splicing reporter in HEK293T-REx cells; assay type: cell-based; settings: activators 10 μM, 4 μ8c 32 μM, 18 hr
Method: FIG. 2A and FIG. 2B. Activation of RLuc luminescence in HEK293T-Rex cells stably expressing XBP1s-RLuc treated with 10 μM IRE1 activators in the presence or absence of IRE1 inhibitor 4 μ8c (32 μM) for 18 hr. Luminescence is shown as % signal relative to Tg treatment (500 nM; 18 hr). Error bars represent standard deviation for n=3 replicates (FIG. 2A), Activation of RLuc luminescence in HEK293T-Rex cells stably expressing XBP1s-RLuc treated with the indicated concentrations of IRE1 activator compounds for 18 hr. Luminescence is shown as % signal relative to Tg treatment (500 nM; 18 hr) Error bars represent standard deviation for n=3 replicates (FIG. 2B).
HEK293T-Rex cells incorporating either the XBP1s-Rluc or ERSE-FLuc reporters were collected by trypsinization and resuspended at a density of 500,000 cells per mL. The assay was started by dispensing 5 μL of cell suspension into each well of white, solid-bottom 1536-well plates using a flying reagent dispenser (FRD) and placed into an online incubator for 3 hr. Cells were then treated with 34 nL/well of either test compounds to give final concentrations of 5.17 μM, DMSO (low control, final concentration 0.68%, 0% activation) or 37 μM of Delta-7 thapsigargin (high control, final concentration 500 nM, 100% activation). Plates were incubated for 18 hr at 37° C., removed from the incubator and equilibrated to room temperature for 10 min. Luciferase activity was detected by addition of 5 μL of ONE-Glo reagent (Promega) to each well. After a 10 min incubation time, light emission was measured with the ViewLux reader (PerkinElmer).
The percent activation of each test compound was calculated as follows: % Activation=100*(Test Compound-Median Low Control)/(Median High Control Median Low Control). Primary screening of the 646,275 compound library at Scripps Florida yielded 10,114 hits for XBP1s Renilla Luciferase activity at ≥13.83% activation by thapsigargin. Compounds that hit in more than 7 screens (promiscuity score) were eliminated, as well as those that elicited HSP70 activation. The top 6,391 remaining compounds (activation≥16.36%) were moved forward to triplicate confirmation screening and HEK TREX CTG cytotoxicity counterscreening. Duplicates were removed from the resulting list, and the top 638 activating compounds (≥15.92%) were moved forward for triplicate titration screening and HEK TREX CTG titration counterscreening.
A HEK293^T-REx cell line that stably expresses a XBP1-Renilla luciferase (XBP1-RLuc) splicing reporter was used to identify compounds that activated the IRE1/XBP1s signaling pathway^37. Activated IRE1selectively splices mRNA encoded by this reporter, resulting in a frame-shift that allows expression of the active Renilla luciferase enzyme^37. […]

[7] = system: XBP1 splicing; experiment: XBP1 splicing in HEK293T cells with or without KIRA6; assay type: cell-based
Method: To amplify the spliced and unspliced XBP1 mRNA, XBP1 primers were used as described previously.^21 PCR products were electrophoresed on 2.5% agarose gel. GAPDH (forward 5′[…]3′, reverse 5′[…]3′) was used as a loading control. The size difference between the spliced and the unspliced XBP1 is 26 nucleotides.
Next was determined the dependence of compound-dependent IRE1 RNAse activation on autophosphorylation. HEK293T cells were initially treated with the compounds in the absence or presence of KIRA6—a compound that binds the nucleotide binding pocket and inhibits both IRE1 kinase and RNAse activity^36. Co-treatment with KIRA6 blocked compound-dependent XBP1splicing.

[8] = target: IRE1 (Homo sapiens, UniProt O75460); experiment: IRE1 phosphorylation by Phos-tag SDS-PAGE and immunoblotting in HEK293T cells; assay type: cell-based; settings: co-treatment of Tg (500 nM) and 1 μM APY29
Method: as §1
Cell lysates were prepared as previously described in RIPA buffer (50 mM Tris, pH 7.5, 150 mM NaCl, 0.1% SDS, 1% Triton X-100, 0.5% deoxycholate and protease inhibitor cocktail (Roche). Total protein concentration in cellular lysates was normalized using the Bio-Rad protein assay. Lysates were then denatured with 1× Laemmli buffer+100 mM DTT and boiled before being separated by SDS-PAGE. Samples were transferred onto nitrocellulose membranes (Bio-Rad) for immunoblotting and blocked with 5% milk in Tris-buffered saline, 0.5% Tween-20 (TBST) following incubation overnight at 4° C. with primary antibodies. Membranes were washed in TBST, incubated with IR-Dye conjugated secondary antibodies and analyzed using Odyssey Infrared Imaging System (LI-COR Biosciences). Quantification was carried out with LI-COR Image Studio software.
Compounds that activate IRE1 through binding the IRE1 kinase active site and inhibiting IRE1 autophosphorylation can elicit off-target activity likely associated with binding to other protein kinases.^20, 35, 36 Thus, the purpose of this example was to define the dependence of the present compounds on IRE1 kinase activity. HEK293T cells were treated with compound 198, 474, or 970 in the absence or presence of Tg, and IRE1 phosphorylation was monitored by using Phos-tag SDS-PAGE and immunoblotting. As a control, cells were treated with APY29—an IRE1 kinase site inhibitor that allosterically activates the IRE1 RNAse^20 in the absence or presence of Tg.

IRE1, sequence (O75460 19-977): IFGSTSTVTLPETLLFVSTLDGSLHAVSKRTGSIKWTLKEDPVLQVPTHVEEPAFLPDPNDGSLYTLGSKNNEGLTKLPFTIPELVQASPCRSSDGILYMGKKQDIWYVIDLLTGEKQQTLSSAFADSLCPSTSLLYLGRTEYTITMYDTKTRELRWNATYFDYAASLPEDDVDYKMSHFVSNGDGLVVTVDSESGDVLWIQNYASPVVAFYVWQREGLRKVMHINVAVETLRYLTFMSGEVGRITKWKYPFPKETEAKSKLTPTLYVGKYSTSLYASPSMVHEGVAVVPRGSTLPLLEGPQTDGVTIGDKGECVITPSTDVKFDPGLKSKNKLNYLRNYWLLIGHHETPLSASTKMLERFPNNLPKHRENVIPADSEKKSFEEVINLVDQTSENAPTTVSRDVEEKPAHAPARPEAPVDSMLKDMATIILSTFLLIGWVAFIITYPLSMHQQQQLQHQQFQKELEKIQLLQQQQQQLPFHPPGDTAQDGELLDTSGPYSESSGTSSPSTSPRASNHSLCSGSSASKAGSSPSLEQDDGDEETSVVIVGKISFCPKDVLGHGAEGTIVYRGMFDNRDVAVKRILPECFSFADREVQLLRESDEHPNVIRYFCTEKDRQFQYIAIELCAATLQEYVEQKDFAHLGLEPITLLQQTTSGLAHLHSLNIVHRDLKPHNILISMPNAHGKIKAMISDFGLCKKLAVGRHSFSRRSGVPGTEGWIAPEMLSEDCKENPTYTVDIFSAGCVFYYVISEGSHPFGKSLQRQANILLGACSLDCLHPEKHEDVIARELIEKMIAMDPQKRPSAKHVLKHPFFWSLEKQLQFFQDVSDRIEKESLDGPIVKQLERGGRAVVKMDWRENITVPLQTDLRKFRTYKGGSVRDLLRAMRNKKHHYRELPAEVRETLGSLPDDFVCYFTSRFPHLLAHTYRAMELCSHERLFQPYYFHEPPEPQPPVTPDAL

C/C=C(/C)C(=O)O[C@H]1C(C)=C2[C@H]([C@@H]1OC(=O)CCCCCCC)[C@@](C)(OC(C)=O)C[C@H](OC(=O)CCC)[C@@]1(O)[C@H]2OC(=O)[C@@]1(C)O [Tg, thapsigargin]
levels of RIDD targets SCARA3, Bloc1s1 and Col6A1 [1]: reduced

Cc1cc(=O)oc2c(C=O)c(O)ccc12 [4 μ8c, reference compound]
effect of 4 μ8c co-treatment on reduced APP levels [2]: reversed
effect of co-treatment on compound-dependent BiP increase [3]: blocked
effect of 4 μ8c co-treatment on compound-increased DNAJB9 expression [4]: inhibited
effect of 4 μ8c co-treatment on reduced extracellular Aβ [5]: blocked
effect of 4 μ8c co-administration on compound-dependent XBP1 splicing reporter activation [6]: blocked

CC(C)(C)c1nc(-c2ccc(NC(=O)Nc3cccc(C(F)(F)F)c3)c3ccccc23)c2c(N)nccn12 [KIRA6]
effect of KIRA6 co-treatment on compound-dependent XBP1 splicing [7]: blocked

c1cc(Nc2cc(C3CC3)[nH]n2)nc(Nc2ccc3nc[nH]c3c2)n1 [APY29, reference compound]
IRE1 phosphorylation [8]: significant reductions
